The source of these data is patent US5164295A, “Method for identifying amyloid protein-extracellular matrix protein affinity altering compounds” (The Upjohn Company, priority 1991, dated 1992).

Test [1] concerns HSPG binding to AAP proteins and fibronectin. In words: Effect of test compounds on HSPG binding, stated collectively for the immobilized proteins. The note with it: for effect on HSPG binding to any AAP protein tested (negated sentence: 'Neither ... had any effect'): even at 4000 μg/ml. The procedure:
(§1) The assay comprised immobilizing AAP695 /s which was then exposed to free HSPG in the absence or presence of test compounds. Other aspects of the assay included exposing free HSPG to either immobilized AAP751 /s, or AAP770 /s, each in the absence or presence of test compounds. The assay was also performed with fibronectin as the immobilized protein in order to provide a positive control. In each case, a series of concentrations of HSPG and test compounds was used. Additionally, to determine whether or not the carbohydrate moiety of HSPG was involved in the binding to immobilized components, the carbohydrate moiety of HSPG was removed and assays were performed using the carbohydrate-free HSPG core protein. The test compounds used in experiments described here include heparin, dextran sulfate, chondroitin sulfate, dermatan sulfate, fibronectin, gelatin, bovine serum albumin (BSA), Ca^++ (CaCl2), Mg^++ (MgCl2), Mn^++ (MnCl2), Co^++ (Co(NO3)2), and Zn^++ (ZnCl2).
(§2) The assay used in studying the interaction between HSPG and protein ligands was an ELISA technique. Briefly, polystyrene micro-titer plates (Linbro, Flow Lab Inc.) were coated with a 100 μl solution, containing 1 μg/ml of the protein of interest (one of the three forms of AAP or fibronectin) in 20 mM NaHCO3 buffer pH 9.6. After incubation overnight at 4° C., the plates were rinsed with 0.15M NaCl, 20 mM Tris-Cl pH 7.5 (TBS). The plates were then incubated with 150 μl of 1% BSA in TBS for 2 hours at 37° C. to block the residual hydrophobic surface on the wells. After rinsing with TBS containing 0.05% (w/v) Tween 20 (TBS-Tween), 100 μl of various concentrations of HSPG in TBS-Tween were added. The plates were left overnight at 4° C., to permit maximum binding of HSPG to the coated proteins. The plates were then washed extensively and incubated for 2 hours at 37° C., with 100 μl of anti-HSPG diluted in TBS-Tween containing 0.1% BSA. The plates were washed again and incubated for another 2 hours with 100 μl of goat anti-rabbit-IgG conjugated with alkaline phosphatase (1:2000 dilution) in TBS-Tween containing BSA as above. Finally, after further washing, the bound antibodies were detected by adding an alkaline phosphatase substrate solution (100 μl) containing 2 mg/ml p-nitrophenyl phosphate, 0.1 mM ZnCl2, 1 mM MgCl2 and 100 mM glycine pH 10. The plates were left at room temperature for 15-120 minutes depending on the protein tested. The enzyme reaction was stopped by addition of 50 μl of 2M NaOH. The absorbance of the released p-nitrophenol was measured at 405 nm with a Titertek Multiscan/MCC 340 (Flow Lab. Ltd.). The amounts of HSPG bound were determined by the net OD405 after substracting the OD from the blank wells in which the HSPG incubation step was omitted. When the actual amounts of HSPG bound were to be calculated, a set of standards (0.05-50 ng/well) of HSPG in NaHCO3 buffer were pre-coated into wells on the same plates as the test proteins. The incubations proceeded as described above omitting the incubation of the HSPG solution with the HSPG standard coated wells. The actual amounts of HSPG bound to the test proteins were calculated from the OD405 standard curve produced by the HSPG standards using a Titersoft II E.J.A. software program (Flow Lab. Ltd.).
In addition to test compounds described above, other compounds were tested to determine their effect upon HSPG-AAP binding.

Test [2] addresses T1, HSPG binding to AAP751 /s (Homo sapiens, UniProt P05067).
T1 construct: maintained the entire extracellular portion of the AAP; made in house; host or cells: insect cells (recombinant baculovirus)
Description: Effect of test compounds on intact HSPG binding to immobilized AAP751 /s (ELISA). The note with it: for Activity: binding of intact HSPG, percentage ± SD of control: AAP751 /S, HSPG 2 μg/ml; for HSPG binding, % of control: AAP751. Set-up: effect of increasing concentration on degree of HSPG binding to AAP751 /s: dose or concentration left out as unconfirmed. As to the method:
as §1, §2
(§3) Heparin and dextran sulfate, respectively, were each used as test compounds to determine their effect on the HSPG binding to AAP forms and fibronectin. Various concentrations of heparin or dextran sulfate were added together with a constant amount of HSPG to wells coated with AAPs for fibronectin.
(An ELISA detects its analyte on a solid surface through an enzyme-linked reagent.)

Test [3] concerns HSPG binding to fibronectin. Description: Effect of test compounds on intact HSPG binding to immobilized fibronectin (ELISA). The note with it: for Activity: binding of intact HSPG, percentage ± SD of control: Fibronectin, HSPG 2 μg/ml; for inhibition of HSPG binding to immobilized fibronectin: test compound 50 μg/ml; for HSPG binding, % of control: fibronectin. Details: species or system bovine; effect of increasing concentration on degree of HSPG binding to fibronectin: dose or concentration left out as unconfirmed. As to the method: as §1
Fibronectin (from bovine plasma), heparin (grade II from porcine intestinal mucosa, average molecular weight=[…]), heparan sulfate, chondroitin sulfate, dextran sulfate, BSA, and alkaline phosphatase substrate were obtained from Sigma, St. Louis, Mo. Alkaline phosphatase conjugated goat anti-rabbit IgG was obtained from Boehringer-Manneheim, and heparitinase from ICN Biochemicals.
as §2, §3

Test [4] deals with T2, HSPG binding to AAP695 /s (Homo sapiens, UniProt P05067).
T2 construct: maintained the entire extracellular portion of the AAP; made in house; host or cells: insect cells (recombinant baculovirus)
In words: Effect of test compounds on intact HSPG binding to immobilized AAP695 /s (ELISA). Conditions: for Activity: binding of intact HSPG, percentage ± SD of control: AAP695 /S, HSPG 2 μg/ml; for HSPG binding, % of control: AAP695. The procedure:
as §1, §2, §3

Where [5] appears, read: test compound 500 μg/ml (Table II).

Regarding `[Ca+2].[Cl-].[Cl-]` [CaCl2], the “effect of divalent metal ion on HSPG binding” value (from here on “effect of divalent metal ion”) in test [1] (3 mM) is “unaffected”. The entries for the “Activity: binding of intact HSPG, percentage ± SD of control” value (“Activity … percentage ± SD of control” below) in test [2] (addition 4 mM), in test [3] (addition 4 mM) and in test [4] (addition 4 mM) were 105.5 ± 3.5%, 101.5 ± 2.1% and 92.5 ± 7.7%, respectively.
Regarding `O=[N+]([O-])[O-].O=[N+]([O-])[O-].[Co+2]` [Co (NO3), Co(NO3)2], the “effect of divalent metal ion” value in test [1] (0.1 mM) is recorded as “unaffected”. Further, the “Activity … percentage ± SD of control” value in test [2] (addition 0.1 mM) was found to be 91 ± 8.5%; in test [3] (addition 0.1 mM) it was 100 ± 14%; in test [4] (addition 0.1 mM) it was 97.3 ± 2.5%.
For `[Cl-].[Cl-].[Mg+2]` [MgCl2], the “effect of divalent metal ion” value in test [1] (10 mM) was “unaffected”. Besides, the “Activity … percentage ± SD of control” value in test [2] (addition 10 mM) is 102.5 ± 7.8%; in test [3] (addition 10 mM), 105 ± 9.9%; in test [4] (addition 10 mM) it was 102.5 ± 6.4%.
For `[Cl][Mn][Cl]` [MnCl2], the “effect of divalent metal ion” value in test [1] (4 mM) is listed as “unaffected”. The “Activity … percentage ± SD of control” value in test [2] (addition 4 mM) stood at 106 ± 19.7%; in test [3] (addition 4 mM), 101.5 ± 9.2%; in test [4] (addition 4 mM), 107 ± 18.3%.
As to `[Cl-].[Cl-].[Zn+2]` [ZnCl2], the “Activity … percentage ± SD of control” value in test [2] (addition 0.1 mM) is 85.5 ± 9%; in test [3] (addition 0.1 mM), 44 ± 14.6%; in test [4] (addition 0.1 mM), 31 ± 8.1%. Also, in test [3] (test compound 0.1 mM), the “inhibition of HSPG binding to fibronectin” value is on record as 55%. Besides, the “inhibition of HSPG binding to AAP695 /s” value in test [4] (test compound 0.1 mM) is on record as 70%.
As for “Fibronectin: Fibronectin from bovine plasma (Sigma), added in solution as test compound”, in test [1] (test compound 50 μg/ml in solution, the AAPs), the “interference with HSPG binding to the AAPs” value is listed as “only moderately interferes”. For the same compound, the “Activity … percentage ± SD of control” value in test [2] (addition 50 μg/ml) is reported as 103.7 ± 14.5%; in test [3] (addition 50 μg/ml), 33.4 ± 18.4%; in test [4] (addition 50 μg/ml), 76.3 ± 9.5%. Besides, the “inhibition of HSPG binding to immobilized fibronectin” value in test [3] came out at 65%.
Regarding Gelatin, the “Activity … percentage ± SD of control” value in test [2] (addition 50 μg/ml) is 60.2 ± 8.3%; in test [3] (addition 50 μg/ml) it was 28.5 ± 16.5%; in test [4] (addition 50 μg/ml), 50.5 ± 18.4%. The “inhibition of HSPG binding to AAP751 /s” value in test [2] (test compound 50 μg/ml) is reported as 40%. Besides, in test [3], the “inhibition of HSPG binding to immobilized fibronectin” value is 70%. Also, in test [4] (test compound 50 μg/ml), the “inhibition of HSPG binding to AAP695 /s” value is given as 50%.
chondroitin sulfate: the “effect on HSPG binding to any AAP protein tested (negated sentence: 'Neither ... had any effect')” value in test [1] is listed as “had any effect”. Besides, the “Activity … percentage ± SD of control” value turned out to be 110 ± 24.2% in test [2] (addition 4 mg/ml), 107 ± 10.8% in test [3] (addition 4 mg/ml) and 110 ± 15.3% in test [4] (addition 4 mg/ml).
Take dermatan sulfate: the “effect on HSPG binding to any AAP protein tested (negated sentence: 'Neither ... had any effect')” value in test [1] is on record as “had any effect”. For the same compound, the “Activity … percentage ± SD of control” value in test [2] (addition 4 mg/ml) came out at 127 ± 30%; in test [3] (addition 4 mg/ml), 107 ± 20.6%; in test [4] (addition 4 mg/ml), 121 ± 14%.
For the compound dextran sulfate, the “mode of inhibition of HSPG binding to AAP751 /s” value in test [2] is reported as “noncompetitive”. Besides, the “Activity … percentage ± SD of control” value in test [2] (addition 500 μg/ml) is recorded as 63 ± 8.6%; in test [3] (addition 500 μg/ml) it was 71 ± 10.8%; in test [4] (addition 500 μg/ml), 8.5 ± 2.4%. Also, the “HSPG binding, % of control” value turned out to be 74% in test [2] (test compound 31.2 μg/ml); 71% in test [2] (test compound 62.5 μg/ml); 67% in test [2] (test compound 125 μg/ml); 68% in test [2] (test compound 250 μg/ml); 63% in test [2] (setting [5]); 67% in test [3] (test compound 31.2 μg/ml). Further, the “HSPG binding, % of control” value in test [3] (test compound 62.5 μg/ml) is reported as 70%; in test [3] (test compound 125 μg/ml), 68%; in test [3] (test compound 250 μg/ml), 63%; in test [3] (setting [5]) it was 60%; in test [4] (test compound 31.2 μg/ml), 14%; in test [4] (test compound 62.5 μg/ml), 11%. Besides, the entries for the “HSPG binding, % of control” value in test [4] (test compound 125 μg/ml), in test [4] (test compound 250 μg/ml) and in test [4] (setting [5]) were 9%, 11% and 11%, respectively. Besides, the “effect of increasing concentration on degree of HSPG binding to AAP751 /s” value in test [2] (concentration increased) is given as “did not further decrease”. In addition, the “inhibition of HSPG binding to AAP751 /s” value in test [2] (test compound 32 μg/ml) was 30%. Moreover, the “mode of inhibition of HSPG binding to fibronectin” value in test [3] was “noncompetitive”. Moreover, the “effect of increasing concentration on degree of HSPG binding to fibronectin” value in test [3] (concentration increased) is listed as “did not further decrease”. Moreover, the “inhibition of HSPG binding to fibronectin” value in test [3] (test compound 32 μg/ml) turned out to be 30%. The “mode of inhibition of HSPG binding to AAP695 /s” value in test [4] is recorded as “probably competitive”. Besides, in test [4] (test compound 32 μg/ml), the “inhibition of HSPG binding to AAP695 /s” value is recorded as “about 85%”.
